Several values for one entry are separate records, joined by “and”; a condition that tells them apart may be missing. Identical values can stand only once.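 Cultured in 96-well plates, cells were exposed to test compound for 48 hours across five concentrations. Here, GI50 denotes the concentration required for 50% inhibition of growth. TGI denotes the concentration required for complete inhibition of growth.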
Assays:
Test in all cases: NCI anticancer screen, dose series, 48 h
CAKI-1 renal = tested on: CAKI-1 renal
DU-145 prostate = tested on: DU-145 prostate
HCC-2998 colon = tested on: HCC-2998 colon
HOP-62 NSCLC = tested on: HOP-62 NSCLC
HT29 colon = tested on: HT29 colon
MDA-MB-231 breast = tested on: MDA-MB-231 breast
NCI-H23 lung = tested on: NCI-H23 lung
NCI-H522 lung = tested on: NCI-H522 lung
SR leukemia = tested on: SR leukemia
SW-620 colon = tested on: SW-620 colon

`C=CCN(/C=C1\C(=O)O[C@H](COC)[C@@]2(C)C1=C(O)C(=O)C1=C2[C@H](OC(C)=O)C[C@]2(C)C(=O)CC[C@@H]12)CC=C` was tested, and the GI50 (CAKI-1 renal) was 0.188 µM and 0.2 µM, the TGI (CAKI-1 renal) was 20 µM and 10.1 µM and the GI50 (DU-145 prostate) was 11.2 µM and 1.27 µM. The TGI (DU-145 prostate) was 20 µM and > 100 µM, the GI50 (HCC-2998 colon) was 0.487 µM and 0.207 µM and the TGI (HCC-2998 colon) was 8.12 µM and 4.94 µM. The TGI (HOP-62 NSCLC) was 20 µM and 71.3 µM, the GI50 (HT29 colon) was 0.101 µM and 0.558 µM and the TGI (HT29 colon) was 20 µM and > 100 µM. For the same compound, the GI50 (MDA-MB-231 breast) was 13.2 µM and 3.32 µM, the TGI (MDA-MB-231 breast) was 20 µM and > 100 µM and the GI50 (NCI-H23 lung) was 8.94 µM and 2.69 µM. The TGI (NCI-H23 lung) was 20 µM and > 100 µM, the GI50 (NCI-H522 lung) was 6.46 µM and 2.87 µM and the TGI (NCI-H522 lung) was 20 µM and 22.2 µM. For the same compound, the GI50 (SR leukemia) was 0.86 µM and 0.644 µM, the TGI (SR leukemia) was 20 µM and 8.02 µM and the GI50 (SW-620 colon) was 6.16 µM and 2.09 µM. For the same compound, the TGI (SW-620 colon) was 20 µM and > 100 µM.

Work on `COC(=O)[C@H](CC(C)C)NC(=O)NC(=O)NC(=O)CI` yielded a GI50 (CAKI-1 renal) of 1.06 µM, a TGI (CAKI-1 renal) of 2.23 µM and a GI50 (DU-145 prostate) of 14 µM. It also gave a TGI (DU-145 prostate) of 27 µM, a GI50 (HCC-2998 colon) of 11.4 µM and a TGI (HCC-2998 colon) of 24.2 µM. It also gave a GI50 (HOP-62 NSCLC) of 18.2 µM, a TGI (HOP-62 NSCLC) of 34.2 µM and a GI50 (HT29 colon) of 1.93 µM. The TGI (HT29 colon) was 3.59 µM, the GI50 (MDA-MB-231 breast) was 10.2 µM and the TGI (MDA-MB-231 breast) was 25.8 µM. The GI50 (NCI-H23 lung) was 14.9 µM, the TGI (NCI-H23 lung) was 32.2 µM and the GI50 (NCI-H522 lung) was 1.67 µM. The TGI (NCI-H522 lung) was 3.2 µM, the GI50 (SR leukemia) was 1.25 µM and the TGI (SR leukemia) was 4.37 µM. The GI50 (SW-620 colon) was 1.83 µM and the TGI (SW-620 colon) was 3.53 µM.

Compound `CC[CH2][Sn]([Cl])([Cl])[CH2]CC` has a GI50 (CAKI-1 renal) of 6.69 µM, a TGI (CAKI-1 renal) of 21 µM and a GI50 (DU-145 prostate) of 14.5 µM. The TGI (DU-145 prostate) was 28.6 µM, the GI50 (HCC-2998 colon) was 10.1 µM and the TGI (HCC-2998 colon) was 22 µM. The GI50 (HOP-62 NSCLC) was 16.6 µM, the TGI (HOP-62 NSCLC) was 31.3 µM and the GI50 (HT29 colon) was 14.4 µM. For the same compound, the TGI (HT29 colon) was 30.9 µM, the GI50 (MDA-MB-231 breast) was 5.16 µM and the TGI (MDA-MB-231 breast) was 18.9 µM. It also gave a GI50 (NCI-H23 lung) of 9.13 µM, a TGI (NCI-H23 lung) of 22 µM and a GI50 (NCI-H522 lung) of 0.354 µM. The TGI (NCI-H522 lung) was 1.62 µM, the GI50 (SR leukemia) was 3.38 µM and the TGI (SR leukemia) was 80.7 µM. For the same compound, the GI50 (SW-620 colon) was 2.61 µM and the TGI (SW-620 colon) was 11.5 µM.

With `CCOC(=O)C(=O)N=Nc1nc2c(O)c3ccccc3c(O)c2s1` the TGI (CAKI-1 renal) was 35.6 µM, the TGI (DU-145 prostate) was 31.6 µM and the TGI (HCC-2998 colon) was 28.6 µM. For the same compound, the TGI (HOP-62 NSCLC) was 24.7 µM, the TGI (HT29 colon) was 35 µM and the TGI (MDA-MB-231 breast) was 12.7 µM. It also gave a TGI (NCI-H23 lung) of 4.91 µM, a TGI (NCI-H522 lung) of 8.79 µM and a TGI (SR leukemia) of over 100 µM. It also gave a TGI (SW-620 colon) of 5.7 µM.

`COc1ccc(Cc2cnc(NC(=O)c3sc4ccccc4c3Cl)s2)cc1` showed a GI50 (CAKI-1 renal) of 0.487 µM, a TGI (CAKI-1 renal) of over 100 µM and a GI50 (DU-145 prostate) of 0.37 µM. It also gave a TGI (DU-145 prostate) of over 100 µM, a GI50 (HCC-2998 colon) of 0.547 µM and a TGI (HCC-2998 colon) of over 100 µM. For the same compound, the GI50 (HOP-62 NSCLC) was 0.513 µM, the TGI (HOP-62 NSCLC) was over 100 µM and the GI50 (HT29 colon) was 0.37 µM. For the same compound, the TGI (HT29 colon) was over 100 µM, the GI50 (MDA-MB-231 breast) was 0.585 µM and the TGI (MDA-MB-231 breast) was over 100 µM. The GI50 (NCI-H23 lung) was 0.647 µM, the TGI (NCI-H23 lung) was over 100 µM and the GI50 (NCI-H522 lung) was 0.279 µM. It also gave a GI50 (SR leukemia) of 0.31 µM, a TGI (SR leukemia) of over 100 µM and a GI50 (SW-620 colon) of 0.409 µM. For the same compound, the TGI (SW-620 colon) was over 100 µM.

`c1ccc(-c2nn(-c3ccccc3)[n+](-c3cccc4ccccc34)n2)cc1` gave a GI50 (CAKI-1 renal) of 37.1 µM, a TGI (CAKI-1 renal) of over 100 µM and a GI50 (DU-145 prostate) of 4.26 µM. For the same compound, the TGI (DU-145 prostate) was over 100 µM, the GI50 (HCC-2998 colon) was 1.91 µM and the TGI (HCC-2998 colon) was 14.8 µM. It also gave a GI50 (HOP-62 NSCLC) of 1.39 µM, a TGI (HOP-62 NSCLC) of 33.2 µM and a GI50 (HT29 colon) of 0.918 µM. The TGI (HT29 colon) was 15.1 µM, the GI50 (MDA-MB-231 breast) was 0.787 µM and the TGI (MDA-MB-231 breast) was 12.9 µM. The GI50 (NCI-H23 lung) was 0.994 µM, the TGI (NCI-H23 lung) was 12.8 µM and the GI50 (NCI-H522 lung) was 0.979 µM. It also gave a TGI (NCI-H522 lung) of 10.9 µM, a GI50 (SR leukemia) of 0.644 µM and a TGI (SR leukemia) of 7.93 µM. For the same compound, the GI50 (SW-620 colon) was 1.44 µM and the TGI (SW-620 colon) was 15.9 µM.

Reference: PubChem BioAssay (NCI)
